Patent publication US12678384B2, “Sanitizing compositions containing ionic liquid” (CAGE BIO INC., priority 2020, dated 2026)
Like-named read-outs stand apart in the source and are kept apart here.

Legend:
E. coli = experiment: In vivo study of residual antimicrobial efficacy on finger taps (Example 7); conditions: finger taps inoculated with E. coli 30 min (controls) or 30 min, 1 hr, 2 hrs (test article) post application
Protocol: • 1) Wash hands with nonmedicated soap to remove surface dirt and oil, dried, and finally decontaminate with 70% isopropyl alcohol. Allow to air dry. • 2) Apply test article (Sanitizer A containing 5% CAGE) and controls (70% Alcohol and DI Water or 0.9% Sterile Saline Solution) on each finger tap to cover it completely. Let it dry. • 3) Inoculate the finger taps #1-3 with 10 μL of high-concentrated suspension of E. coli at 30 min of post-application. • 4) Wait for 60 sec (contact time) • 5) Tap the finger on the TSA agar plate and transfer plates #1-3 into the incubator set at 37° C. • 6) Apply 10 μL of inoculum on Finger #4 at 1 hr. of post application. • 7) Wait for 60 sec and tap the finger on the TSA agar plate. Transfer plate into the incubator set at 37° C. • 8) Apply 10 μL of inoculum on Finger #5 at 2 hrs of post application. • 9) Wait for 60 sec and tap the finger on the TSA agar plate. Transfer plate into the incubator set at 37° C. • 10) Observe bacterial growth after 24 hrs in incubator.

[1] = system: human Coronavirus strain 229E (hCoV229E) (ATCC #VR-740); conditions: for TCID10 (log10): 5% w/w in purified water, virus control 6.50; for CPE (cytopathic/cytotoxic effect), four replicate wells: 5% w/w
[2] = in vivo
Protocol: Distilled water was used as a negative control. The patches were removed by the subjects after 24 h and a new one was applied by the site staff at the same exact site at the next visit. The subjects reported to the site for a total of 9 visits, 3 each week. During each visit the application area was observed by the study investigator and a new patch was applied.
This cosmetic study was approved by an IRB and conducted by AMA Laboratories Inc. in New York. […] The application area was occluded with hypoallergenic tape. The subjects were required to keep the tape for 24 h. At each visit, the application site was evaluated for skin irritation on a 5-point scale (0-4). […] The subjects were then evaluated for any skin reactions after 24 and 48 h.

| Molecule | microbial growth after 24 hrs at 37° C. (E. coli) | TCID10 (log10) ([1]; 5 minutes exposure) | TCID10 (log10) ([1]; 10 minutes exposure) | CPE (cytopathic/cytotoxic effect), four replicate wells ([1]; 5 minutes exposure, dilution (−Log10) −3) | CPE (cytopathic/cytotoxic effect), four replicate wells ([1]; 5 minutes exposure, dilution (−Log10) −4) | CPE (cytopathic/cytotoxic effect), four replicate wells ([1]; 5 minutes exposure, dilution (−Log10) −5) | CPE (cytopathic/cytotoxic effect), four replicate wells ([1]; 5 minutes exposure, dilution (−Log10) −6) | CPE (cytopathic/cytotoxic effect), four replicate wells ([1]; 5 minutes exposure, dilution (−Log10) −7) | CPE (cytopathic/cytotoxic effect), four replicate wells ([1]; 10 minutes exposure, dilution (−Log10) −3) | CPE (cytopathic/cytotoxic effect), four replicate wells ([1]; 10 minutes exposure, dilution (−Log10) −4) | CPE (cytopathic/cytotoxic effect), four replicate wells ([1]; 10 minutes exposure, dilution (−Log10) −5) | CPE (cytopathic/cytotoxic effect), four replicate wells ([1]; 10 minutes exposure, dilution (−Log10) −6) | CPE (cytopathic/cytotoxic effect), four replicate wells ([1]; 10 minutes exposure, dilution (−Log10) −7) | other adverse events reported in the study [2] | sensitization response [2] | subjects showing any skin reactions in the first 3 visits (7-days) [2] | subjects that did not display any irritation throughout the entire 21-day study [2] [subjects] | subjects that experienced some skin irritation [2] [subjects] |
| --- | --- | --- | --- | --- | --- | --- | --- | --- | --- | --- | --- | --- | --- | --- | --- | --- | --- | --- |
| CCO [70% Ethanol, Ethanol] | Microbial growth was observed | – | – | – | – | – | – | – | – | – | – | – | – | – | – | – | – | – |
| choline geranate [CG-101] | – | ≤2.50 | ≤2.50 | 0000 | 0000 | 0000 | 0000 | 0000 | 0000 | 0000 | 0000 | 0000 | 0000 | no other adverse events | did not create any sensitization response | None | 43 | 8 |
